One assay concerns the target T1, rHCRTR1 (Rattus norvegicus, UniProt P56718).
T1 construct: expressed in transfected cells; host or cells: HEK293 (transient transfection, pCI-Neo vector), membrane preparation
T1 sequence (P56718 1-416): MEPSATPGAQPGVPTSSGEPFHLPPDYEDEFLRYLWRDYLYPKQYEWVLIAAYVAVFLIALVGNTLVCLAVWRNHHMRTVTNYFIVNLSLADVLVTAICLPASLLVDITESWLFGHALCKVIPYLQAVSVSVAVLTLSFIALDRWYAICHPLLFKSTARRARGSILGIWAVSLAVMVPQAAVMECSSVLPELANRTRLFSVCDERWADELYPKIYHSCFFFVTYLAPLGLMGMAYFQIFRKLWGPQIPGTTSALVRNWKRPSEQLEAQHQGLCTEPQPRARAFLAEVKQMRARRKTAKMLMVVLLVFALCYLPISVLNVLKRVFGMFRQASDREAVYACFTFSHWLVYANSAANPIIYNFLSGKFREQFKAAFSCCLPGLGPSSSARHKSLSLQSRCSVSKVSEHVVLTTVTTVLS
The assay can be described thus: Inhibition of [^3H]almorexant binding to HEK293-rHCRTR1 membranes. The source says: The rat cDNAs encoding HCRTR1 (Accession No. P56718) and HCRTR2 (Accession No. P56719) were subcloned into pCI-Neo expression vectors (Promega, Madison, WI) and used to transfect HEK293 cells (acquired commercially from ATCC-LGC, Molsheim, France) as previously described.

For a further assay, the target named is T2, HCRTR2 (Rattus norvegicus, UniProt P56719).
T2 construct: from tissue; host or cells: coronal brain sections of male Sprague-Dawley rats (TMN, DRN, CC, CA3, RSC, Pn)
T2 sequence (P56719 1-460): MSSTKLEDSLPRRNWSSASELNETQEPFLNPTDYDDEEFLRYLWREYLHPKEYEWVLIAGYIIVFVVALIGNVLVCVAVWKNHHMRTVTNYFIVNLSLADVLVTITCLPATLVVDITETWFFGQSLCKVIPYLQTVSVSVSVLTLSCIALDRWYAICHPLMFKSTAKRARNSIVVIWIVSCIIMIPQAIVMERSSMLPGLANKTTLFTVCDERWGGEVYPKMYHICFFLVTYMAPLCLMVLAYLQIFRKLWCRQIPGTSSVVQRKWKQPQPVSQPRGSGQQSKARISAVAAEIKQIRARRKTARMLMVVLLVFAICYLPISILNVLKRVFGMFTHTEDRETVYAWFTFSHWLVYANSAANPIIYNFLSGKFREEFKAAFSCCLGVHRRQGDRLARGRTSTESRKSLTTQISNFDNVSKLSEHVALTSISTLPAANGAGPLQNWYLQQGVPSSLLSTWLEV
The experiment in a line: HCRTR2 occupancy, [^3H]EMPA autoradiography of brain sections. The class given is in vivo. As to conditions: 30 mg/kg ip; for receptor occupancy at 30 mg/kg: rat, ip, 12 h.

Take `CNC(=O)[C@@H](c1ccccc1)N1CCc2cc(OC)c(OC)cc2[C@@H]1CCc1ccc(C(F)(F)F)cc1` [almorexant, (2R)-2-[(1S)-6,7-Dimethoxy-1-[2-(4-trifluoromethyl-phenyl)-ethyl]-3,4-dihydro-1H-isoquinolin-2-yl]-N-methyl-2-phenyl-acetamide]: the affinity at rHCRTR1 corresponds to a Ki of 7.1 ± 0.7 nM. The “HCRTR2 RO” value at HCRTR2 (all 6 structures, within 30 min, maximal at 2 h and 4 h) is recorded as ~100%. Besides, the receptor occupancy at 30 mg/kg at HCRTR2 (CA3) was 58.4 ± 11.5%; on HCRTR2 (CC), 66.1 ± 11.6%; on HCRTR2 (DRN) it was 57.7 ± 10.5%; at HCRTR2 (Pn) it was 67.2 ± 13.9%; at HCRTR2 (RSC), 64.6 ± 10.7%; on HCRTR2 (TMN), 49.2 ± 13.2%.

One may read the Ki as a measure of affinity in units of concentration, obtained from inhibition or displacement.

The values are drawn from paper PMC3388080 (PLoS ONE, 2012).
